Results taken from publication PMC11148080, “Ru(II)-based complexes containing 2-thiouracil derivatives suppress liver cancer stem cells by targeting NF-κB and Akt/mTOR signaling” (Cell Death Discovery, 2024).
Where “and” joins values, the source holds several entries; their conditions need not be identical. Equal values may be shown once.

Columns and labels:
MRC-5 = experiment: Alamar Blue cytotoxicity, noncancerous cells; assay type: cell-based, human; conditions: MRC-5, 72 h
Protocol: (§1) The Alamar Blue assay was used to measure cell viability, as previously described. Adherent cells were seeded in 96-well plates at a density of 7 × 10^3 cells per well, and suspended cells were seeded at 3 × 10^4 cells per well. Drugs were added to each well after overnight incubation for adherent cells or immediately after seeding for suspension cells, and incubation continued for an additional 72 h. The positive control included doxorubicin (Laboratorio IMA S.A.I.C., Buenos Aires, Argentina). Four hours (for cell lines) or 24 h (for primary cultures) before the end of incubation, 20 μL of resazurin (30 μM) (Sigma‒Aldrich Co. St. Louis, MO, USA) was added to each well. The absorbance at 570 and 600 nm was measured using a SpectraMax 190 microplate reader (Molecular Devices, Sunnyvale, CA, USA).

BJ = experiment: Alamar Blue cytotoxicity, noncancerous cells; assay type: cell-based, human; conditions: 72 h
Protocol: as §1

HepG2 cells [1] = experiment: Annexin V-FITC/PI apoptosis detection; assay type: cell-based, human; conditions: for apoptosis (annexin V-FITC+ cells): HepG2, 72 h, control 4.8%; for percentage of necrotic cells: HepG2, 24, 48, 72 h
Protocol: For apoptosis detection, cell viability was quantified using Annexin V-FITC/PI (FITC Annexin V Apoptosis Detection Kit I, BD Biosciences, San Jose, CA, USA) according to the manufacturer’s instructions. The cells were also stained with rhodamine 123 (5 μg/mL, Sigma Aldrich Co.) for 15 min at 37 °C in the dark to assess the mitochondrial transmembrane potential. After the cells were washed, they were incubated in saline for 30 min in the dark at 37 °C and analyzed by flow cytometry. For all flow cytometry analyses, cellular fluorescence was measured using a BD LSRFortessa cytometer, BD FACSDiva software (BD Biosciences) and FlowJo software 10 (FlowJo LLC; Ashland, OR, USA). A minimum of 10,000 events were obtained per sample for intracellular staining, and a minimum of 30,000 events per sample were acquired for cell surface protein staining. Doublets were removed using FSC-A vs FCS-H and SCC-A vs SCC-H. Cellular debris was excluded from the analysis.

B16-F10 = experiment: Alamar Blue cytotoxicity; assay type: cell-based, mouse; conditions: B16-F10, 72 h
Protocol: as §1

HepG2 cells [2] = experiment: DNA content assay (internucleosomal DNA fragmentation, cell cycle); assay type: cell-based, human; conditions: HepG2, 72 h, control 5.6%
Protocol: Internucleosomal DNA fragmentation and cell cycle distribution were determined by a DNA content assay. The cells were stained with PI using a solution containing 0.1% Triton X-100, 2 µg/mL PI, 0.1% sodium citrate, and 100 μg/mL RNAse (all from Sigma‒Aldrich) and incubated in the dark for 15 min at room temperature. For all flow cytometry analyses, cellular fluorescence was measured using a BD LSRFortessa cytometer, BD FACSDiva software (BD Biosciences) and FlowJo software 10 (FlowJo LLC; Ashland, OR, USA). A minimum of 10,000 events were obtained per sample for intracellular staining, and a minimum of 30,000 events per sample were acquired for cell surface protein staining. Doublets were removed using FSC-A vs FCS-H and SCC-A vs SCC-H. Cellular debris was excluded from the analysis.

Jurkat = experiment: Alamar Blue cytotoxicity; assay type: cell-based, human; conditions: Jurkat, 72 h
Protocol: as §1

HSC-3 = experiment: Alamar Blue cytotoxicity; assay type: cell-based, human; conditions: HSC-3, 72 h
Protocol: as §1

THP-1 = experiment: Alamar Blue cytotoxicity; assay type: cell-based, human; conditions: THP-1, 72 h
Protocol: as §1

K-562 = experiment: Alamar Blue cytotoxicity; assay type: cell-based, human; conditions: K-562, 72 h
Protocol: as §1

A-375 = experiment: Alamar Blue cytotoxicity; assay type: cell-based, human; conditions: A-375, 72 h
Protocol: as §1

HCT116 = experiment: Alamar Blue cytotoxicity; assay type: cell-based, human; conditions: HCT116, 72 h
Protocol: as §1

KG-1a = experiment: Alamar Blue cytotoxicity; assay type: cell-based, human; conditions: KG-1a, 72 h
Protocol: as §1

CAL 27 = experiment: Alamar Blue cytotoxicity; assay type: cell-based, human; conditions: CAL 27, 72 h
Protocol: as §1

NB4 = experiment: Alamar Blue cytotoxicity; assay type: cell-based, human; conditions: NB4, 72 h
Protocol: as §1

A549 = experiment: Alamar Blue cytotoxicity; assay type: cell-based, human; conditions: A549, 72 h
Protocol: as §1

MDA-MB-231 = experiment: Alamar Blue cytotoxicity; assay type: cell-based, human; conditions: MDA-MB-231, 72 h
Protocol: as §1

SCC4 = experiment: Alamar Blue cytotoxicity; assay type: cell-based, human; conditions: SCC4, 72 h
Protocol: as §1

SCC-9 = experiment: Alamar Blue cytotoxicity; assay type: cell-based, human; conditions: SCC-9, 72 h
Protocol: as §1

OVCAR-3 = experiment: Alamar Blue cytotoxicity; assay type: cell-based, human; conditions: OVCAR-3, 72 h
Protocol: as §1

U-87 MG = experiment: Alamar Blue cytotoxicity; assay type: cell-based, human; conditions: U-87 MG, 72 h
Protocol: as §1

PANC-1 = experiment: Alamar Blue cytotoxicity; assay type: cell-based, human; conditions: PANC-1, 72 h
Protocol: as §1

HepG2 = experiment: Alamar Blue cytotoxicity; assay type: cell-based, human; conditions: HepG2, 72 h
Protocol: as §1

SCC-25 = experiment: Alamar Blue cytotoxicity; assay type: cell-based, human; conditions: SCC-25, 72 h
Protocol: as §1

MCF-7 = experiment: Alamar Blue cytotoxicity; assay type: cell-based, human; conditions: MCF-7, 72 h
Protocol: as §1

DU 145 = experiment: Alamar Blue cytotoxicity; assay type: cell-based, human; conditions: DU 145, 72 h
Protocol: as §1

Q: Cc1cc(=O)nc([S][Ru+])[nH]1.F[P-](F)(F)(F)(F)F.c1ccc(-c2ccccn2)nc1.c1ccc(P(c2ccccc2)c2ccccc2)cc1.c1ccc(P(c2ccccc2)c2ccccc2)cc1 [Complex 2, trans-[Ru(6m2TU)(PPh3)2(bipy)]PF6] was tested. Which IC50 (MRC-5) did it give?
A: Its IC50 is 15.2 µM.

Q: What about the IC50 (MRC-5; listed as 2) of the same molecule?
A: Its IC50 is 15.2 µM.

Q: What about the IC50 (BJ) of the same molecule?
A: Its IC50 is 7.8 µM and 7.79 µM.

Q: What about the “apoptosis (annexin V-FITC+ cells)” value (HepG2 cells [1]; 1.5 µM) of the same molecule?
A: Its value is 9.1%.

Q: And the “apoptosis (annexin V-FITC+ cells)” value (HepG2 cells [1]; 3 µM)?
A: Its value is 40.7%.

Q: And the “apoptosis (annexin V-FITC+ cells)” value (HepG2 cells [1]; 6 µM)?
A: The value was 76.9%.

Q: And the “percentage of necrotic cells” value (HepG2 cells [1])?
A: Its value is “no significant increase”.

Q: What about the IC50 (B16-F10) of the same molecule?
A: Its IC50 is 2.75 µM.

Q: What about the “DNA fragmentation (sub-G0/G1)” value (HepG2 cells [2]; 1.5 µM) of the same molecule?
A: Its value is 18.6%.

Q: What about the “DNA fragmentation (sub-G0/G1)” value (HepG2 cells [2]; 3 µM) of the same molecule?
A: Its value is 39.1%.

Q: And the “DNA fragmentation (sub-G0/G1)” value (HepG2 cells [2]; 6 µM)?
A: Its value is 72.9%.

Q: And the IC50 (Jurkat)?
A: The IC50 was 4.94 µM.

Q: What about the IC50 (HSC-3) of the same molecule?
A: The IC50 was 5.55 µM.

Q: And the IC50 (THP-1)?
A: The IC50 was 6.47 µM.

Q: What about the IC50 (K-562) of the same molecule?
A: The IC50 was 7.69 µM.

Q: And the IC50 (A-375)?
A: The IC50 was 2 µM.

Q: What about the IC50 (HCT116) of the same molecule?
A: Its IC50 is 4.52 µM.

Q: What about the IC50 (KG-1a) of the same molecule?
A: The IC50 was 3.77 µM.

Q: And the IC50 (CAL 27)?
A: The IC50 was 4.31 µM.

Q: What about the IC50 (NB4) of the same molecule?
A: Its IC50 is 5.25 µM.

Q: What about the IC50 (A549) of the same molecule?
A: Its IC50 is 10.5 µM.

Q: And the IC50 (MDA-MB-231)?
A: Its IC50 is 2.95 µM.

Q: What about the IC50 (SCC4) of the same molecule?
A: Its IC50 is 3.48 µM.

Q: What about the IC50 (SCC-9) of the same molecule?
A: The IC50 was 2.54 µM.

Q: And the IC50 (OVCAR-3)?
A: Its IC50 is 1.6 µM and 1.62 µM.

Q: What about the IC50 (U-87 MG) of the same molecule?
A: Its IC50 is 3.69 µM.

Q: And the IC50 (PANC-1)?
A: The IC50 was 4.09 µM.

Q: What about the IC50 (HepG2) of the same molecule?
A: Its IC50 is 3.17 µM.

Q: What about the IC50 (SCC-25) of the same molecule?
A: Its IC50 is 3.63 µM.

Q: What about the IC50 (MCF-7) of the same molecule?
A: The IC50 was 7.29 µM.

Q: And the IC50 (DU 145)?
A: Its IC50 is 3.74 µM.

Q: What does the source list for F[P-](F)(F)(F)(F)F.O=c1cc[nH]c([S][Ru+])n1.c1ccc(-c2ccccn2)nc1.c1ccc(P(c2ccccc2)c2ccccc2)cc1.c1ccc(P(c2ccccc2)c2ccccc2)cc1 [Complex 1, trans-[Ru(2TU)(PPh3)2(bipy)]PF6]?
A: IC50 (MRC-5): 17.7 µM; IC50 (BJ): 7 µM; apoptosis (annexin V-FITC+ cells) (HepG2 cells [1]; 2 µM): 9.0%; apoptosis (annexin V-FITC+ cells) (HepG2 cells [1]; 4 µM): 48.9%; apoptosis (annexin V-FITC+ cells) (HepG2 cells [1]; 8 µM): 76.1%; percentage of necrotic cells (HepG2 cells [1]): no significant increase; IC50 (B16-F10): 3.04 µM; DNA fragmentation (sub-G0/G1) (HepG2 cells [2]; 2 µM): 12.3%; DNA fragmentation (sub-G0/G1) (HepG2 cells [2]; 4 µM): 26.7%; DNA fragmentation (sub-G0/G1) (HepG2 cells [2]; 8 µM): 43.1%; IC50 (Jurkat): 5.07 µM; IC50 (HSC-3): 8.36 µM; IC50 (THP-1): 4.75 µM; IC50 (K-562): 6.77 µM; IC50 (A-375): 3.01 µM; IC50 (HCT116): 4.74 µM; IC50 (KG-1a): 4.77 µM; IC50 (CAL 27): 2.66 µM; IC50 (NB4): 4.79 µM; IC50 (A549): 17.5 µM; IC50 (MDA-MB-231): 2.62 µM; IC50 (SCC4): 4.77 µM; IC50 (SCC-9): 4.4 µM; IC50 (OVCAR-3): 2.4 µM and 2.43 µM; IC50 (U-87 MG): 3.53 µM; IC50 (PANC-1): 9.45 µM; IC50 (HepG2): 3.49 µM; IC50 (SCC-25): 7.61 µM; IC50 (MCF-7): 9.21 µM; IC50 (DU 145): 7.6 µM
